Data set [1] is described as follows: Metabolic stability in human liver microsomes (LM), LC-MS/MS (first table). The class given is in vitro ADME. The settings on record: for microsomal CLint: Table 1, read-out: Human LM CLint (μL/min/mg protein); for half-life: Table 1, read-out: Human LM t1/2. Here is the method:
(§1) Metabolism of compound(s) to release (+)-α-DTHBZ was determined by the half-life (t1/2) and intrinsic clearance (CIint) in human plasma (PS) and liver microsomes (LM) using tandem mass spectrometry (LC-MS/MS).
In general terms: Liver microsomes are vesicles of endoplasmic reticulum, rich in cytochrome P450 enzymes.

The nature of data set [2]: Stability in human plasma (PS), LC-MS/MS. The data set is classed as in vitro ADME. The note with it: for half-life: read-out: Human PS t1/2. Here is the method: as §1
The nature of data set [3]: LM stability assay, human (second table). The class given is in vitro ADME. The settings on record: human liver microsomes, Table 2. Here is the method: Metabolism of compound(s) to release (+)-α-DTHBZ was determined by the half-life (t1/2) and intrinsic clearance (CIint) in human liver microsomes (LM) using tandem mass spectrometry (LC-MS/MS).
Data set [4] is described as follows: Heps. stability assay, human cryopreserved hepatocytes. The data set is classed as in vitro ADME. On the procedure:
Metabolism of compound(s) to release (+)-α-DTHBZ was determined by the half-life (t1/2) and intrinsic clearance (CIint) in human cryopreserved hepatocytes using tandem mass spectrometry (LC-MS/MS).

Data set [5] in a line: Kinetic solubility in PBS buffer. The class given is physicochemical. The settings on record: aqueous buffer, kinetic from dmso stock, compound suspended at 300 μM, 25° C. Here is the method:
Kinetic solubility was determined by suspending compound at 300 μM at pH 1.2 and 7.4 in PBS buffer. The suspension was equilibrated by shaking at 25° C. at 1100 RPM for 2 hours and then pH was measured following filtration. The filtrate was then diluted by an appropriate factor (e.g. 100-fold). Quantitation was done by LC-MS/MS with reference to a standard solution.

Data set [6] is described as follows: Permeability in Caco-2 cell monolayer. The settings on record: human. The class given is in vitro ADME. Here is the method: The intestinal permeability of compound(s) was evaluated in Caco-2 cells by assessing transport across the cell monolayer in the apical to basolateral (A-B) direction. Active efflux was also assessed by measuring transport in the basolateral to apical (BA) direction which enables evaluation of the efflux ratio. Analysis of transport is quantified by tandem mass spectrometry (LC-MS/MS).
In general terms: Passage across Caco-2 layers is used to estimate intestinal permeability.

Each structure is given as a SMILES string. ≈ marks a conversion by molar mass, not a printed value. Where a name gives a salt, the structure may show the parent alone. Read-outs that look alike come from different tables or passages of the source.

Regarding `COc1cc2c(cc1OC)[C@@H]1C[C@H](OC(=O)C(=O)O)[C@@H](CC(C)C)CN1CC2` (stereo in doubt) [Example 1, (2S,3S,11bS)-9,10-dimethoxy-3-(2-methylpropyl)-1H,2H,3H,4H,6H,7H,11bH-pyrido[2,1-a]isoquinolin-2-yl hydrogen oxalate], in data set [1], the microsomal CLint worked out at 3.24 µL/min/mg and the half-life was 6.91 h. The “Human PS t1/2 (min)” value in data set [2] is given as “∞”.

For `COc1cc2c(cc1OC)[C@@H]1C[C@H](OC(=O)/C=C/C(=O)O)[C@@H](CC(C)C)CN1CC2` (stereo in doubt) [Example 3, (2E)-4-[[(2S,3S,11bS)-9,10-dimethoxy-3-(2-methylpropyl)-1H,2H,3H,4H,6H,7H,11bH-pyrido[2,1-a]isoquinolin-2-yl]oxy]-4-oxobut-2-enoic acid], in data set [1] (Table 1), the “Human LM t1/2 (min)” value is given as “∞”. In addition, the half-life in data set [2] is 12.7 h.

As for `COc1cc2c(cc1OC)[C@H]1C[C@@H](OC(=O)/C=C\C(=O)O)[C@H](CC(C)C)CN1CC2` [Example 4, (2Z)-4-[[(2R,3R,11bR)-9,10-dimethoxy-3-(2-methylpropyl)-1H,2H,3H,4H,6H,7H,11bH-pyrido[2,1-a]isoquinolin-2-yl]oxy]-4-oxobut-2-enoic acid], in data set [1], the microsomal CLint is less than 3.4 µL/min/mg and the half-life was more than 3.39 h. The half-life in data set [2] was 55 h.

In the case of `COc1cc2c(cc1OC)[C@H]1C[C@@H](OC(=O)CCCCCCC(=O)O)[C@H](CC(C)C)CN1CC2` [Example 5, 8-[[(2R,3R,11bR)-9,10-dimethoxy-3-(2-methylpropyl)-1H,2H,3H,4H,6H,7H,11bH-pyrido[2,1-a]isoquinolin-2-yl]oxy]-8-oxooctanoic acid], the microsomal CLint in data set [1] came out at 3.16 µL/min/mg; in data set [3] (read-out: LM stability assay Human Clint (μL/min/mg protein)) it was 1.04 µL/min/mg; in data set [4] (read-out: Heps. stability assay Human Clint (μL/min/mg protein)) it was 50.7 µL/min/mg. Besides, the half-life in data set [1] was 3.89 h; in data set [3] (read-out: LM stability assay Human t1/2), 56.8 h; in data set [4] (read-out: Heps. stability assay Human t1/2), 0.456 h. In addition, the “Human PS t1/2 (min)” value in data set [2] is “∞”. The kinetic solubility (as a rule, solubility judged after dilution from a stock solution rather than from solid) at 2 h in data set [5] (pH 1.2, PBS buffer, read-out: Kinetic Solubility pH = 1.2 (300 μM)) is 276 µM (≈ 131 µg/mL); in data set [5] (pH 7.4, PBS buffer, read-out: Kinetic Solubility pH = 7.4 (300 μM)), 306 µM (≈ 146 µg/mL). In data set [6] (Caco-2), the efflux ratio (in general, a quotient of directional permeabilities that is used to spot active efflux) was 0.98. The Papp A→B (in general, the apparent permeability from the apical to the basolateral side of a cell layer) in data set [6] (Caco-2, apical to basolateral) was found to be 22.4 ×10⁻⁶ cm/s. In addition, the Papp B→A (as a rule, how fast a substance crosses the layer from the basolateral side) in data set [6] (Caco-2, basolateral to apical) was 22 ×10⁻⁶ cm/s.

Regarding `COc1cc2c(cc1OC)[C@H]1C[C@@H](OC(=O)/C=C/C(=O)OC(C)C)[C@H](CC(C)C)CN1CC2` [Example 8, (2R,3R,11bR)-9,10-dimethoxy-3-(2-methylpropyl)-1H,2H,3H,4H,6H,7H,11bH-pyrido[2,1-a]isoquinolin-2-yl 1-isopropyl (2E)-but-2-enedioate], in data set [1], the microsomal CLint was found to be 98 µL/min/mg and the half-life turned out to be 0.118 h. Besides, the half-life in data set [2] is more than 11.8 h.

With `COc1cc2c(cc1OC)[C@H]1C[C@@H](OC(=O)/C=C\C(=O)OC(C)C)[C@H](CC(C)C)CN1CC2` [Example 10, (2R,3R,11bR)-9,10-dimethoxy-3-(2-methylpropyl)-1H,2H,3H,4H,6H,7H,11bH-pyrido[2,1-a]isoquinolin-2-yl 1-isopropyl (2Z)-but-2-enedioate], in data set [1], the microsomal CLint amounted to 104 µL/min/mg and the half-life amounted to 0.111 h. Besides, the half-life in data set [2] is more than 3770 h.

Consider `COc1cc2c(cc1OC)[C@H]1C[C@@H](OC(=O)/C=C/C(=O)N[C@H](C(=O)O)C(C)C)[C@H](CC(C)C)CN1CC2` [Example 11, (2S)-2-[(2E)-4-[[(2R,3R,11bR)-9,10-dimethoxy-3-(2-methylpropyl)-1H,2H,3H,4H,6H,7H,11bH-pyrido[2,1-a]isoquinolin-2-yl]oxy]-4-oxobut-2-enamido]-3-methylbutanoic acid], for which the microsomal CLint in data set [1] is 4.24 µL/min/mg. Besides, the results for the half-life in data set [1] and in data set [2] were 2.95 h and 0.225 h, respectively.

As for `COc1cc2c(cc1OC)[C@H]1C[C@@H](OC(=O)/C=C\C(=O)N[C@@H](Cc3ccccc3)C(=O)O)[C@H](CC(C)C)CN1CC2` [Example 14, (2S)-2-[(2Z)-4-[[(2R,3R,11bR)-9,10-dimethoxy-3-(2-methylpropyl)-1H,2H,3H,4H,6H,7H,11bH-pyrido[2,1-a]isoquinolin-2-yl]oxy]-4-oxobut-2-enamido]-3-phenylpropanoic acid], the microsomal CLint in data set [1] stood at 2.91 µL/min/mg. Besides, the half-life was found to be 4.16 h in data set [1] and 0.2 h in data set [2].

With `COc1cc2c(cc1OC)[C@H]1C[C@@H](OC(=O)/C=C/C(=O)O[C@@H]3C[C@@H]4c5cc(OC)c(OC)cc5CCN4C[C@H]3CC(C)C)[C@H](CC(C)C)CN1CC2` [Example 18, bis[(2R,3R,11bR)-9,10-dimethoxy-3-(2-methylpropyl)-1H,2H,3H,4H,6H,7H,11bH-pyrido[2,1-a]isoquinolin-2-yl] (2E)-but-2-enedioate], in data set [1], the microsomal CLint was determined as 1.11 µL/min/mg and the half-life came out at 20.8 h. For the same compound, the half-life in data set [2] is more than 11 h.

Regarding `COc1cc2c(cc1OC)[C@H]1C[C@@H](OC(=O)/C=C\C(=O)O[C@@H]3C[C@@H]4c5cc(OC)c(OC)cc5CCN4C[C@H]3CC(C)C)[C@H](CC(C)C)CN1CC2` [Example 19, bis[(2R,3R,11bR)-9,10-dimethoxy-3-(2-methylpropyl)-1H,2H,3H,4H,6H,7H,11bH-pyrido[2,1-a]isoquinolin-2-yl] (2Z)-but-2-enedioate], the microsomal CLint in data set [1] is 0.84 µL/min/mg. In addition, the half-life in data set [1] was more than 13.7 h; in data set [2] it was 134 h.

As for `COc1cc2c(cc1OC)[C@H]1C[C@@H](OC(=O)C(=O)O[C@@H]3C[C@@H]4c5cc(OC)c(OC)cc5CCN4C[C@H]3CC(C)C)[C@H](CC(C)C)CN1CC2` [Example 20, Bis[(2R,3R,11bR)-9,10-dimethoxy-3-(2-methylpropyl)-1H,2H,3H,4H,6H,7H,11bH-pyrido[2,1-a]isoquinolin-2-yl] oxalate], in data set [1], the microsomal CLint worked out at 3.83 µL/min/mg and the half-life is 3.2 h. Also, the half-life in data set [2] is 1.35 h.

On to `CCNC(=O)O[C@@H]1C[C@@H]2c3cc(OC)c(OC)cc3CCN2C[C@H]1CC(C)C` [Example 21, (2R,3R,11bR)-9,10-dimethoxy-3-(2-methylpropyl)-1H,2H,3H,4H,6H,7H,11bH-pyrido[2,1-a]isoquinolin-2-yl N-ethylcarbamate], for which, in data set [1], the microsomal CLint amounted to 1.67 µL/min/mg and the half-life turned out to be 8.05 h. In data set [2], the half-life was more than 341 h.

Regarding `COc1cc2c(cc1OC)[C@H]1C[C@@H](OC(=O)NC(C)C)[C@H](CC(C)C)CN1CC2` [Example 22, (2R,3R,11bR)-9,10-dimethoxy-3-(2-methylpropyl)-1H,2H,3H,4H,6H,7H,11bH-pyrido[2,1-a]isoquinolin-2-yl N-isopropylcarbamate], the microsomal CLint in data set [1] stood at 5.15 µL/min/mg. The results for the half-life in data set [1] and in data set [2] were 2.31 h and more than 65.5 h, respectively.

As to `CCC(=O)OCOC(=O)O[C@@H]1C[C@@H]2c3cc(OC)c(OC)cc3CCN2C[C@H]1CC(C)C` [Example 24, [([[(2R,3R,11bR)-9,10-dimethoxy-3-(2-methylpropyl)-1H,2H,3H,4H,6H,7H,11bH-pyrido[2,1-a]isoquinolin-2-yl]oxy]carbonyl)oxy]methylpropanoate], the half-life in data set [2] worked out at 1.42 h.

Consider `COc1cc2c(cc1OC)[C@H]1C[C@@H](OC(=O)OCOC(=O)C(C)C)[C@H](CC(C)C)CN1CC2` [Example 25, [([[(2R,3R,11bR)-9,10-dimethoxy-3-(2-methylpropyl)-1H,2H,3H,4H,6H,7H,11bH-pyrido[2,1-a]isoquinolin-2-yl]oxy]carbonyl)oxy]methyl 2-methylpropanoate], for which the half-life in data set [2] is 1.98 h.

Turning to `COc1cc2c(cc1OC)[C@H]1C[C@@H](OC(=O)OCOC(=O)CC(C)C)[C@H](CC(C)C)CN1CC2` [Example 26, [([[(2R,3R,11bR)-9,10-dimethoxy-3-(2-methylpropyl)-1H,2H,3H,4H,6H,7H,11bH-pyrido[2,1-a]isoquinolin-2-yl]oxy]carbonyl)oxy]methyl 3-methylbutanoate], in data set [1], the microsomal CLint was determined as 1380 µL/min/mg and the half-life is 0.00833 h. For the same compound, the half-life in data set [2] was 1.39 h.

The record behind these values is US20210087191A1, “SUBSTITUTED 3-ISOBUTYL-9,10-DIMETHOXY-1,3,4,6,7,11B-HEXAHYDRO-2H-PYRIDO[2,1-a]ISOQUINOLIN-2-OL COMPOUNDS, THEIR [sequence], AND USE THEREOF” (DISPERSOL TECHNOLOGIES, LLC, priority 2020, published 2021).
